pEC50: −log10 of the molar value. Like-named read-outs stand apart in the source and are kept apart here.
How the values were obtained:
[1] = tested on: prostate cancer (5 cell lines); test: CellTiter-Glo Viability Assay, prostate cancer; type: cell-based; conditions: Homo sapiens
Experimental: (§1) Fifty-one human cancer cell lines (breast cancer (8 cell lines), colorectal cancer (6 cell lines), haematopoietic & lymphoid tumors (13 cell lines), liver cancer (3 cell lines), lung cancer (4 cell lines), ovarian cancer (4 cell lines), pancreatic cancer (8 cell lines), and prostate cancer (5 cell lines)) were tested to determine the effects of representative compounds of Formulas (I)-(XII) on cellular proliferation, as evaluated using the CellTiter-Glo® Viability Assay.
(§2) For the Cell Viability Assays, cells were plated at 300-3,000 cells/well in 384-well plates in their respective media containing 1% Penicillin-Streptomycin and incubated for four days at 37° C. and 5% CO2. Twenty-eight replicates of DMSO-treated cells served as controls and cells treated with compound were performed in duplicate.
(§3) After incubation, 10 μL of CellTiter-Glo® (Promega) was added to each well allowed to incubate for approximately 12 minutes. This reagent results in cell lysis and generation of a luminescent signal proportional to the amount of ATP present. The amount of ATP is directly proportional to the number of metabolically active, viable cells present in culture. The CellTiter-Glo® Assay generates a luminescent signal, produced by the luciferase reaction (Promega.com).
(§4) After incubation, the luminescence signal was read using an EnVision™ Multilabel Plate Reader (Perkin Elmer). Dose-response curves were generated and EC50 concentration values were calculated using Dotmatics' Studies Software (Bishops Stortford, UK).

[2] = biological target: CLK3 (Homo sapiens, UniProt P49761); test: CLK3 kinase activity assay (Z-lyte, Ser/Thr 18 peptide)
[3] = tested on: lung cancer (4 cell lines); test: CellTiter-Glo Viability Assay, lung cancer; type: cell-based; conditions: Homo sapiens, inhibition of cancer cell proliferation
Experimental: as §1, §2, §3, §4

[4] = tested on: pancreatic cancer (8 cell lines); test: CellTiter-Glo Viability Assay, pancreatic cancer; type: cell-based; conditions: Homo sapiens, inhibition of cancer cell proliferation
Experimental: as §1, §2, §3, §4

[5] = tested on: colorectal cancer (6 cell lines); test: CellTiter-Glo Viability Assay, colorectal cancer; type: cell-based; conditions: Homo sapiens, inhibition of cancer cell proliferation
Experimental: as §1, §2, §3, §4

[6] = tested on: liver cancer (3 cell lines); test: CellTiter-Glo Viability Assay, liver cancer; type: cell-based; conditions: Homo sapiens, inhibition of cancer cell proliferation
Experimental: as §1, §2, §3, §4

[7] = tested on: BT-549; test: CellTiter-Glo Viability Assay, breast cancer; type: cell-based; conditions: Homo sapiens, 96 h; BT-549, breast cancer, four days; read-out: EC50
Experimental: as §1, §2, §3, §4

[8] = tested on: MDA-MB-231-Luc; test: CellTiter-Glo Viability Assay, breast cancer; type: cell-based; conditions: Homo sapiens, 96 h; MDA-MB-231-Luc, breast cancer, four days; read-out: EC50
Experimental: as §1, §2, §3, §4

[9] = tested on: HCC1599; test: CellTiter-Glo Viability Assay, breast cancer; type: cell-based; conditions: Homo sapiens, 96 h; HCC1599, breast cancer, four days; read-out: EC50
Experimental: as §1, §2, §3, §4

[10] = tested on: MCF7; test: CellTiter-Glo Viability Assay, breast cancer; type: cell-based; conditions: Homo sapiens, 96 h; MCF7, breast cancer, four days; read-out: EC50
Experimental: as §1, §2, §3, §4

[11] = tested on: T47D; test: CellTiter-Glo Viability Assay, breast cancer; type: cell-based; conditions: Homo sapiens, 96 h, breast cancer, four days, read-out: EC50
Experimental: as §1, §2, §3, §4

[12] = tested on: DU4475; test: CellTiter-Glo Viability Assay, breast cancer; type: cell-based; conditions: Homo sapiens, DU-4475, 96 h; DU4475, breast cancer, four days; read-out: EC50
Experimental: as §1, §2, §3, §4

[13] = tested on: CAMA1; test: CellTiter-Glo Viability Assay, breast cancer; type: cell-based; conditions: Homo sapiens, CAMA-1, 96 h; CAMA1, breast cancer, four days; read-out: EC50
Experimental: as §1, §2, §3, §4

[14] = tested on: ovarian cancer (4 cell lines); test: CellTiter-Glo Viability Assay, ovarian cancer; type: cell-based; conditions: Homo sapiens, inhibition of cancer cell proliferation
Experimental: as §1, §2, §3, §4

[15] = biological target: T1, CLK2 (Homo sapiens, UniProt P49760); test: CLK2 kinase activity assay (Z-lyte, Ser/Thr 6 peptide); type: biochemical; conditions: recombinant CLK2 kinase, ATP 60 μM; read-out: EC50
T1 construct: purchased Thermo Fisher (Life Technologies), Z'-LYTE Kinase Assay Kits
Experimental: All reactions were performed in duplicate.

[16] = tested on: all 50 cell lines; test: CellTiter-Glo Viability Assay, average across all cell lines; type: cell-based; conditions: Homo sapiens; across all 50 cell lines; read-out: average EC50 for inhibition of cancer cell proliferation
Experimental: as §1, §2, §3, §4

[17] = tested on: haematopoietic & lymphoid tumors (13 cell lines); test: CellTiter-Glo Viability Assay, haematopoietic & lymphoid tumors; type: cell-based; conditions: Homo sapiens, inhibition of cancer cell proliferation
Experimental: as §1, §2, §3, §4

T1 sequence (P49760 whole entry): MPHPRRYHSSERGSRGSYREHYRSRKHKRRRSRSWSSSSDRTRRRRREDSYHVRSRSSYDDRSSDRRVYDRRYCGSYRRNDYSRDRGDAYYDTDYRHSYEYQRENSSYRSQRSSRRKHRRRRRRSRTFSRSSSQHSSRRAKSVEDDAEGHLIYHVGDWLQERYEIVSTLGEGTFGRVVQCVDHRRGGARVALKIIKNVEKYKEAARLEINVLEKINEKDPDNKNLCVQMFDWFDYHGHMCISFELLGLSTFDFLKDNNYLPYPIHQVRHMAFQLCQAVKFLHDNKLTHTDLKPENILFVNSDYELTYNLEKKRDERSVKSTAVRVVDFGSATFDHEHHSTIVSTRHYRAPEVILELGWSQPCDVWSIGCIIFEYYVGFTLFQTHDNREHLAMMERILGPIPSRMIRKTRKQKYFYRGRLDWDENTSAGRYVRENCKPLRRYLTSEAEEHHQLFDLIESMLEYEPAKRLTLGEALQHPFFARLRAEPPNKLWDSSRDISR
Chain of CLK3 (P49761 whole entry): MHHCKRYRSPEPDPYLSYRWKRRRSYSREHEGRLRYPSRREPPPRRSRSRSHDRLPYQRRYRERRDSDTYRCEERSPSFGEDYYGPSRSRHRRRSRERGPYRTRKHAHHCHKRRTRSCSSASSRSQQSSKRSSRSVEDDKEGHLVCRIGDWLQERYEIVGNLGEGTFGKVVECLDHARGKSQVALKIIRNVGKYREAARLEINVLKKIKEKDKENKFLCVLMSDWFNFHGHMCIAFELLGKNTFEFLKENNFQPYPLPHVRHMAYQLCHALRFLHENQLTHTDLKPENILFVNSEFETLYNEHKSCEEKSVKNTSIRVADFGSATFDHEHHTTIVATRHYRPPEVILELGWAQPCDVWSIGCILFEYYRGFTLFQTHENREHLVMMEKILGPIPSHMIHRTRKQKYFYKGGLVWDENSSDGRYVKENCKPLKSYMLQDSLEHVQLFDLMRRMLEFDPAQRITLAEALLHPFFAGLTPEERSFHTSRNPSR

CN1CCN(c2cc(C(=O)Nc3cc4cc(-c5nnc(N(C)C)s5)ccc4cn3)ccn2)CC1 [Compound 84]
pEC50 ([1]; DU-145, read-out: Prostate cancer EC50 Du-145): 5.98 | pEC50 ([1]; PC-3, PC3 cell line, inhibition of cancer cell proliferation, read-out: Prostate cancer EC50 PC3): 6.07 | pEC50 ([1]; 22Rv1 cell line, inhibition of cancer cell proliferation, read-out: Prostate cancer EC50 22Rv1): 6.07 | pEC50 ([1]; LNCap clone FGC cell line, inhibition of cancer cell proliferation, read-out: Prostate cancer EC50 LNCap clone FGC): 5.81 | pEC50 ([1]; VCaP (Sigma) cell line, inhibition of cancer cell proliferation, read-out: Prostate cancer EC50 VCaP (Sigma)): 5.46 | pEC50 [2]: 7.57 | EC50 ([3]; A-427, A427 cell line, read-out: Lung cancer, EC50 (μM) A427): 0.856 µM | EC50 ([3]; HCC78, HCC-78 cell line, read-out: Lung cancer, EC50 (μM) HCC-78): 1.47 µM | EC50 ([3]; NCI-H460 cell line, read-out: Lung cancer, EC50 (μM) NCI-H460): 1.26 µM | EC50 ([3]; NCI-H522 cell line, read-out: Lung cancer, EC50 (μM) NCI-H522): 0.553 µM | pEC50 ([4]; BXPC-3, BxPC3 cell line, read-out: Pancreatic cancer, EC50 BxPC3): 5.68 | pEC50 ([4]; CAPAN-1, Capan1 cell line, read-out: Pancreatic cancer, EC50 Capan1): 5.95 | pEC50 ([4]; Capan-2, Capan2 cell line, read-out: Pancreatic cancer, EC50 Capan2): 5.89 | pEC50 ([4]; MIA PaCa-2 cell line, read-out: Pancreatic cancer, EC50 MIA PaCa-2): 6.34 | pEC50 ([4]; PANC 05.04 cell line, read-out: Pancreatic cancer, EC50 PANC 05.04): 5.92 | pEC50 ([4]; PANC-1 cell line, read-out: Pancreatic cancer, EC50 PANC-1): 5.74 | pEC50 ([4]; UPAFII cell line, read-out: Pancreatic cancer, EC50 UPAFII): 6.23 | EC50 ([5]; HCT-116, HCT116 cell line, read-out: Colorectal cancer, EC50 (μM) HCT116): 0.396 µM | EC50 ([5]; HT-29, HT29 cell line, read-out: Colorectal cancer, EC50 (μM) HT29): 1.13 µM | EC50 ([5]; SW-620, SW620 cell line, read-out: Colorectal cancer, EC50 (μM) SW620): 0.26 µM | EC50 ([5]; DLD-1 cell line, read-out: Colorectal cancer, EC50 (μM) DLD-1): 0.658 µM | EC50 ([5]; SW48 cell line, read-out: Colorectal cancer, EC50 (μM) SW48): 0.185 µM | EC50 ([5]; SW480 cell line, read-out: Colorectal cancer, EC50 (μM) SW480): 0.551 µM | pEC50 ([6]; SNU-398, SNU398 cell line, read-out: Liver cancer, EC50 SNU398): 6.63 | pEC50 ([6]; HEPG2 cell line, read-out: Liver cancer, EC50 HEPG2): 6.13 | pEC50 ([6]; PLC/PRF/5 cell line, read-out: Liver cancer, EC50 PLC/PRF/5): 5.72 | pEC50 [7]: 5.91 | pEC50 [8]: 5.96 | pEC50 [9]: 5.95 | pEC50 [10]: 5.59 | pEC50 [11]: 5.84 | pEC50 [12]: 6.19 | pEC50 [13]: 5.92 | EC50 ([14]; PA-1, PA1 cell line, read-out: Ovarian cancer, EC50 (μM) PA1): 0.643 µM | EC50 ([14]; TOV112D, TOV-112D cell line, read-out: Ovarian cancer, EC50 (μM) TOV-112D): 0.61 µM | EC50 ([14]; OV-90 cell line, read-out: Ovarian cancer, EC50 (μM) OV-90): 1.64 µM | EC50 ([14]; OVCAR-3 cell line, read-out: Ovarian cancer, EC50 (μM) OVCAR-3): 0.446 µM | pEC50 [15]: 8.54 | pEC50 [16]: 5.98 | EC50 ([17]; DND41, DND-41 cell line, read-out: Haematopoietic & Lymphoid tumors, EC50 (μM) DND-41): 0.914 µM | EC50 ([17]; MV4-11, MV-4-11 cell line, read-out: Haematopoietic & Lymphoid tumors, EC50 (μM) MV-4-11): 0.316 µM | EC50 ([17]; Rec1, REC-1 cell line, read-out: Haematopoietic & Lymphoid tumors, EC50 (μM) REC-1): 0.23 µM | EC50 ([17]; SU-DHL-4, SUDHL4 cell line, read-out: Haematopoietic & Lymphoid tumors, EC50 (μM) SUDHL4): 0.972 µM | EC50 ([17]; HL-60 cell line, read-out: Haematopoietic & Lymphoid tumors, EC50 (μM) HL-60): 2.59 µM | EC50 ([17]; JM1 cell line, read-out: Haematopoietic & Lymphoid tumors, EC50 (μM) JM1): 0.216 µM | EC50 ([17]; JURKAT, Clone E6-1 cell line, read-out: Haematopoietic & Lymphoid tumors, EC50 (μM) JURKAT, Clone E6-1): 1.62 µM | EC50 ([17]; JeKo-1 cell line, read-out: Haematopoietic & Lymphoid tumors, EC50 (μM) JeKo-1): 0.319 µM | EC50 ([17]; KASUMI-1 cell line, read-out: Haematopoietic & Lymphoid tumors, EC50 (μM) KASUMI-1): 0.842 µM | EC50 ([17]; Loucy cell line, read-out: Haematopoietic & Lymphoid tumors, EC50 (μM) Loucy): 0.78 µM | EC50 ([17]; MOLT-4 cell line, read-out: Haematopoietic & Lymphoid tumors, EC50 (μM) MOLT-4): 0.965 µM | EC50 ([17]; TF-1 cell line, read-out: Haematopoietic & Lymphoid tumors, EC50 (μM) TF-1): 1.31 µM | EC50 ([17]; TOLEDO cell line, read-out: Haematopoietic & Lymphoid tumors, EC50 (μM) TOLEDO): 0.3 µM

Source: patent publication US20220062240A1, “METHODS OF TREATING CANCER USING A CLK INHIBITOR” (BioSplice Therapeutics, Inc., priority 2018, published 2022)
